Test results: ChEMBL document CHEMBL1150470, “The synthesis and cognition enhancing effects of a series of dibenzoyl guanidines. Analogs of N,N-[[4-(aminocarbonyl)phenyl]carbonimidoyl]bis[benzamide]” (1992)
Activity calls are given as the source filed them. The calls are words filed in the database; no cut-off is given here.

What was measured:
Mus musculus [1] = assay: Evaluated for hypoxic survival activity in mice after intraperitoneal administration at 25 mg/kg dose; 25-55; assay type: functional; conditions: ip
Mus musculus [2] = assay: Evaluated for hypoxic survival activity in mice after intraperitoneal administration at 100 mg/kg dose; 5-45; assay type: functional; conditions: ip
Mus musculus [3] = assay: Evaluated for hypoxic survival activity in mice after intraperitoneal administration at 100 mg/kg dose; assay type: functional; conditions: ip
Mus musculus [4] = assay: The compound was evaluated for improvement of anoxic amnesia in mice after ip administration at 10 mg/kg dose; 74-(-19); assay type: functional; conditions: route intraperitoneal
Mus musculus [5] = assay: Evaluated for hypoxic survival activity in mice after intraperitoneal administration at 10 mg/kg dose; 50-50; assay type: functional; conditions: ip
Mus musculus [6] = assay: Evaluated for hypoxic survival activity in mice after intraperitoneal administration at 10 mg/kg dose; assay type: functional; conditions: ip
Mus musculus [7] = assay: Evaluated for hypoxic survival activity in mice after intraperitoneal administration at 10 mg/kg dose; 45-55; assay type: functional; conditions: ip
Mus musculus [8] = assay: The compound was evaluated for improvement of anoxic amnesia in mice after ip administration at 10 mg/kg dose; assay type: functional; conditions: route intraperitoneal
Mus musculus [9] = assay: The compound was evaluated for improvement of anoxic amnesia in mice after ip administration at 50 mg/kg dose; assay type: functional; conditions: route intraperitoneal
Mus musculus [10] = assay: Evaluated for hypoxic survival activity in mice after intraperitoneal administration at 25 mg/kg dose; 55-65; assay type: functional; conditions: ip
Mus musculus [11] = assay: Evaluated for hypoxic survival activity in mice after intraperitoneal administration at 100 mg/kg dose; 40-40; assay type: functional; conditions: ip
Mus musculus [12] = assay: Evaluated for hypoxic survival activity in mice after intraperitoneal administration at 100 mg/kg dose; 15-50; assay type: functional; conditions: ip
Mus musculus [13] = assay: Evaluated for hypoxic survival activity in mice after intraperitoneal administration at 0.125 mg/kg dose; 60-80; assay type: functional; conditions: ip
Mus musculus [14] = assay: The compound was evaluated for improvement of anoxic amnesia in mice after ip administration at 50-200 mg/kg dose; Inactive; assay type: functional, organism-based
Mus musculus [15] = assay: Evaluated for hypoxic survival activity in mice after intraperitoneal administration at 100 mg/kg dose; 35-50; assay type: functional; conditions: ip
Mus musculus [16] = assay: Evaluated for hypoxic survival activity in mice after intraperitoneal administration at 25 mg/kg dose; 5-55; assay type: functional; conditions: ip
Mus musculus [17] = assay: Evaluated for hypoxic survival activity in mice after intraperitoneal administration at 100 mg/kg dose; 30-95; assay type: functional; conditions: ip
Mus musculus [18] = assay: Evaluated for hypoxic survival activity in mice after intraperitoneal administration at 100 mg/kg dose; 65-80; assay type: functional; conditions: ip
Mus musculus [19] = assay: Evaluated for hypoxic survival activity in mice after intraperitoneal administration at 50 mg/kg dose; assay type: functional; conditions: ip
Mus musculus [20] = assay: The compound was evaluated for improvement of anoxic amnesia in mice after ip administration at 25 mg/kg dose; assay type: functional; conditions: route intraperitoneal
Mus musculus [21] = assay: Evaluated for hypoxic survival activity in mice after intraperitoneal administration at 10 mg/kg dose; 50-80; assay type: functional; conditions: ip
Mus musculus [22] = assay: The compound was evaluated for improvement of anoxic amnesia in mice after ip administration at 100 mg/kg dose; assay type: functional; conditions: route intraperitoneal
Mus musculus [23] = assay: Evaluated for hypoxic survival activity in mice after intraperitoneal administration at 50 mg/kg dose; 35-50; assay type: functional; conditions: ip
Mus musculus [24] = assay: Evaluated for hypoxic survival activity in mice after intraperitoneal administration at 10 mg/kg dose; 40-55; assay type: functional; conditions: ip
Mus musculus [25] = assay: The compound was evaluated for improvement of anoxic amnesia in mice after ip administration at 10 mg/kg dose; Inactive; assay type: functional, organism-based; set-up: dose 10 mg/kg
Mus musculus [26] = assay: The compound was evaluated for improvement of anoxic amnesia in mice after ip administration at 50 mg/kg dose; 33-76; assay type: functional; conditions: route intraperitoneal
Mus musculus [27] = assay: Evaluated for hypoxic survival activity in mice after intraperitoneal administration at 100 mg/kg dose; 45-70; assay type: functional; conditions: ip
Mus musculus [28] = assay: Evaluated for hypoxic survival activity in mice after po administration of 100 mg/kg dose; assay type: functional
Mus musculus [29] = assay: The compound was evaluated for improvement of anoxic amnesia in mice after ip administration at 50 mg/kg dose; 53, -8, 102; assay type: functional; conditions: route intraperitoneal
Mus musculus [30] = assay: Evaluated for hypoxic survival activity in mice after intraperitoneal administration at 100 mg/kg dose; 95-95; assay type: functional; conditions: ip
Mus musculus [31] = assay: Evaluated for hypoxic survival activity in mice after intraperitoneal administration at 100 mg/kg dose; 55-80; assay type: functional; conditions: ip
Mus musculus [32] = assay: The compound was evaluated for improvement of anoxic amnesia in mice after ip administration at 100 mg/kg dose; Inactive; assay type: functional, organism-based; set-up: dose 100 mg/kg

NC(=O)c1ccc(N/C(=N\C(=O)c2ccc(F)cc2)NC(=O)c2ccc(Br)cc2)cc1
survival at 25 mg/kg (Mus musculus [1]): 40%

NC(=O)c1ccc(N/C(=N\C(=O)c2ccccc2)NC(=O)c2ccc([N+](=O)[O-])cc2)cc1
survival at 100 mg/kg (Mus musculus [2]): 25%

Cc1cccc(C(=O)N/C(=N/C(=O)c2ccccc2)Nc2ccc(C(N)=O)cc2)c1
survival at 100 mg/kg (Mus musculus [3]): 25%

COc1ccc(C(=O)N/C(=N/C(=O)c2ccccc2)Nc2ccc(C(N)=O)cc2)cc1
Improvement (Mus musculus [4]): 28% | survival at 10 mg/kg (Mus musculus [5]): 50%

NC(=O)c1ccc(N/C(=N\C(=O)c2cccc(C(F)(F)F)c2)NC(=O)c2cccc(C(F)(F)F)c2)cc1
survival at 100 mg/kg (Mus musculus [3]): 5%

COc1ccc(C(=O)/N=C(/NC(=O)c2ccc(OC)cc2)Nc2ccc(C(N)=O)cc2)cc1
survival at 10 mg/kg (Mus musculus [6]): 15%

COc1ccc(C(=O)/N=C(/NC(=O)c2cccc(C)c2)Nc2ccc(C(N)=O)cc2)cc1
survival at 10 mg/kg (Mus musculus [7]): 50% | Improvement (Mus musculus [8]): 28%

NC(=O)c1ccc(N/C(=N\C(=O)c2ccccc2)NC(=O)c2ccc(Br)cc2)cc1
Improvement (Mus musculus [9]): 12% | survival at 25 mg/kg (Mus musculus [10]): 60%

NC(=O)c1ccc(N/C(=N\C(=O)c2ccccc2)NC(=O)c2ccc(C(F)(F)F)cc2)cc1
survival at 100 mg/kg (Mus musculus [11]): 40%

NC(=O)c1ccc(N/C(=N\C(=O)c2ccc(F)cc2)NC(=O)c2cccc(Cl)c2)cc1
survival at 10 mg/kg (Mus musculus [6]): 25%

N#Cc1ccc(C(=O)N/C(=N/C(=O)c2ccccc2)Nc2ccc(C(N)=O)cc2)cc1
survival at 100 mg/kg (Mus musculus [12]): 38%

CNC(=O)Oc1ccc2c(c1)[C@]1(C)CCN(C)[C@@H]1N2C [PHYSOSTIGMINE]
survival at 0.125 mg/kg (Mus musculus [13]): 60%

COc1ccc(C(=O)/N=C(/NC(=O)c2ccc(C)cc2)Nc2ccc(C(N)=O)cc2)cc1
Improvement (Mus musculus [14]): inactive | survival at 100 mg/kg (Mus musculus [3]): 43%

COc1ccc(C(=O)/N=C(/NC(=O)c2ccc(F)cc2)Nc2ccc(C(N)=O)cc2)cc1
survival at 100 mg/kg (Mus musculus [15]): 42% | Improvement (Mus musculus [14]): inactive

NC(=O)c1ccc(N/C(=N\C(=O)c2ccccc2)NC(=O)c2ccc(F)cc2)cc1
survival at 25 mg/kg (Mus musculus [16]): 35%

Cc1ccc(C(=O)N/C(=N/C(=O)c2ccccc2)Nc2ccc(C(N)=O)cc2)cc1
survival at 10 mg/kg (Mus musculus [6]): 5%

COc1ccc(C(=O)/N=C(/NC(=O)c2cccc(Cl)c2)Nc2ccc(C(N)=O)cc2)cc1
survival at 10 mg/kg (Mus musculus [6]): 15%

NC(=O)c1ccc(N/C(=N\C(=O)c2ccccc2)NC(=O)c2cccc([N+](=O)[O-])c2)cc1
survival at 100 mg/kg (Mus musculus [17]): 60%

CC(C)(C)c1ccc(C(=O)N/C(=N/C(=O)c2ccccc2)Nc2ccc(C(N)=O)cc2)cc1
survival at 100 mg/kg (Mus musculus [18]): 72%

COc1ccc(C(=O)/N=C(/NC(=O)c2ccc(C(F)(F)F)cc2)Nc2ccc(C(N)=O)cc2)cc1
survival at 50 mg/kg (Mus musculus [19]): 55%

NC(=O)c1ccc(N/C(=N\C(=O)c2ccccc2)NC(=O)c2cccc(Br)c2)cc1
Improvement (Mus musculus [20]): 118% | survival at 10 mg/kg (Mus musculus [7]): 50%

CCOc1cccc(C(=O)N/C(=N/C(=O)c2ccccc2)Nc2ccc(C(N)=O)cc2)c1
survival at 10 mg/kg (Mus musculus [21]): 67%

Cc1cccc(C(=O)/N=C(/NC(=O)c2cccc(C)c2)Nc2ccc(C(N)=O)cc2)c1
Improvement (Mus musculus [22]): 20% | survival at 50 mg/kg (Mus musculus [23]): 40%

NC(=O)c1ccc(N/C(=N\C(=O)c2ccccc2)NC(=O)c2ccccc2C(F)(F)F)cc1
survival at 10 mg/kg (Mus musculus [6]): 5%

CN(C)CCOc1ccc(C(=O)N/C(=N/C(=O)c2ccccc2)Nc2ccc(C(N)=O)cc2)cc1
survival at 10 mg/kg (Mus musculus [24]): 48% | Improvement (Mus musculus [25]): inactive

NC(=O)c1ccc(N/C(=N\C(=O)c2ccccc2)NC(=O)c2cccc(C(F)(F)F)c2)cc1
survival at 10 mg/kg (Mus musculus [6]): 15%

NC(=O)c1ccc(N/C(=N\C(=O)c2ccccc2)NC(=O)c2ccccc2)cc1
Improvement (Mus musculus [26]): 50% | survival at 100 mg/kg (Mus musculus [27]): 57% | survival at 100 mg/kg (Mus musculus [28]): 48%

NC(=O)c1ccc(N/C(=N\C(=O)c2ccccc2)NC(=O)c2cccc(Cl)c2)cc1
Improvement (Mus musculus [29]): 49% | survival at 100 mg/kg (Mus musculus [30]): 95%

NC(=O)c1ccc(N/C(=N\C(=O)c2ccc(F)cc2)NC(=O)c2cccc(F)c2)cc1
survival at 100 mg/kg (Mus musculus [31]): 68% | Improvement (Mus musculus [32]): inactive
